Assays:
PC12 cells = test: Aβ1-40 cytotoxicity on PC12 cells, MTT assay; format: cell-based; conditions: for inhibitory effect on Aβ1-40 cytotoxicity: both assays (T=0 and after 7 days incubation); for elevation of viability rate of PC12 cells compared with control: 5 μM Aβ1-40, MTT after 24 hours
Experimental: Cell culture: PC12 pheochromocytoma cell line, a cultured benign tumor of the sympathetic nervous system, was routinely grown in Dulbecco's Modified Eagle Medium (DMEM) supplemented with 8% (v/v) fetal calf serum, 8% (v/v) horse serum, 100 U/ml penicillin, 100 U/ml streptomycin, and 2 mM L-glutamine (Biological industries, Israel). The cells were maintained at 37° C. in a humidified atmosphere containing 5% CO2. Cell cytotoxicity assay: PC-12 cells (3×10^5 cells/ml) were cultured in 96-well microplates (100 μl/well) and were incubated overnight at 37° C. The wells were then washed once with serum free-DMEM, so as to exclude the effect of the serum. To each well 100 μl of 5 μM Aβ1-40 (prepared from a stock solution of 0.5 mM in 10 mM NaOH) and an indole derivative at various concentrations were added. Each determination was made in quadruplicate. Following incubation for 24 hours at 37° C., cell viability was evaluated using the MTT assay (as described in Hansen et al. (1989) J. Immunol. Methods 119, 203-210). The effect of the indole derivatives on the formation of cytotoxic amyloid assemblies was determined by measuring the toxicity of the formed Aβ on pheochromocytoma cell line cultures (PC12) in the presence and absence of the indole derivatives. […] Cell viability was determined after 24 hours using the MTT assay. Cells incubated with only 5 μM Aβ1-40 served as the control.

Aβ1-40 [1] = target: T1, Aβ1-40 (Homo sapiens, UniProt P05067); test: Kinetics of Aβ1-40 fibrillogenesis inhibition, ThT fluorescence assay; format: biochemical; conditions: for effect on nucleation phase (lag phase) compared with control / effect on slope of growth curve (polymerization phase): 5 μM, 25 μM and 50 μM tested
T1 construct: Synthetic lyophilized β-amyloid polypeptides (Aβ 1-40 and Aβ 1-42, >98% pure); purchased Bachem (Bubendorf, Switzerland); host or cells: chemical synthesis
T1 sequence (P05067 672-711 limits assumed): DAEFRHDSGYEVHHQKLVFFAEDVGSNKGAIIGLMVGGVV
Experimental: (§1) Aβ solutions: Synthetic lyophilized β-amyloid polypeptides (Aβ 1-40 and Aβ 1-42, >98% pure) were purchased from Bachem (Bubendorf, Switzerland). A 100 μM Aβ stock solution was prepared by dissolving Aβ1-40 or Aβ1-42 in dimethylsulfoxide (DMSO) and sonicating the resulting solution during 1 minute to avoid pre-aggregation. Aβ solutions were prepared by immediate dilution with 10 mM phosphate-buffered saline (100 mM NaCl, 0.5 mM EDTA, pH 7.4) to a final concentration of 10 μM (containing 10% (v/v) DMSO).
(§2) Indole derivatives stock solutions were prepared by dissolving an indole derivative in DMSO, so as to achieve a concentration of 20 mM and then diluting the solution with 10 mM PBS buffer (100 mM NaCl, 0.5 mM EDTA, pH 7.4) to a final concentration of 100 μM (containing 0.5% (v/v) DMSO).
(§3) Thioflavin T fluorescence assay: Fibrillization of A[…] 1-42 polypeptide was monitored using a Thioflavin T (ThT) dye binding assay. A 10 μM Aβ solution (either Aβ1-40 or Aβ1-42) was prepared as described above and was immediately mixed with the indole derivative stock solutions (100 μM), so as to achieve a final concentration of 5 μM for Aβ and various concentrations of the indole derivative. For each measurement, ThT was added to a 0.1 ml sample, to give a final concentration of 0.3 μM ThT and 0.4 μM Aβ. The samples were incubated at 37° C. Fluorescence measurements, made after addition of the ThT solution to each sample at 37° C., were carried out using a Jobin Yvon FluoroMax-3 spectrometer (excitation 450 nm, 2.5 nm slit; emission 480 nm, 5 nm slit, integration time of 1 second). Background was subtracted from each sample. Each experiment was repeated in quadruplicate.
Kinetics Studies of Aβ1-40 Fibrillogenesis Inhibition: Aβ1-40, which has a slower fibrillogenesis rate [see, Jarrett et al. (1993) Biochemistry 32, 4693-4697] was used in these studies, in order to obtain better temporal resolution, assuming that a slower rate would allow more significant inhibition and a better understanding of the effect. 3-Hydroxyindole (denoted as 3HI), 4-hydroxyindole (denoted as 4HI) and indole-3-carbinol (denoted herein as I3C) were each added at concentrations of 5 μM, 25 μM, and 50 μM to a solution containing 5 μM of Aβ1-40 (prepared as described above) and the kinetics of Aβ1-40 fibrillogenesis inhibition was measured using the ThT fluorescence assay.

Aβ1-40 [2] = target: T1, Aβ1-40; test: AFM structural analysis of Aβ1-40 samples from kinetic studies; conditions: 50 μM compound, once control samples reached the polymerization phase
Experimental: Atomic force microscopy (AFM): For each experiment, a 60 μl sample of was taken for AFM measurement at three different time points correlating to the amyloidogenic kinetic curve, as detailed hereinafter. The sample was centrifuged for 1.5 minutes at 13,000 rpm and 40 μl of the supernatant was removed. The remaining 20 μl droplet of the solution was re-suspended and deposited onto freshly cleaved mica for 1.5 minutes. The substrate was washed with 160 μl of double-distilled H2O to reduce background and to eliminate salts and buffer contaminants. The mica samples were then dried at room temperature. At least four regions of the mica surface were examined to ensure that similar structures existed throughout the sample. AFM images were obtained using a Veeco NanoScope IV MultiMode AFM (Digital Instruments, Santa Barbara, USA) in tapping mode. Measurements were performed at a resonance frequency of about 321.4 kHz.
Additional structural analyses were performed using AFM measurements, performed with Aβ1-40 samples taken from the kinetic studies once the control samples reached the different fibrillogenesis phase.

Aβ1-40 [3] = target: T1, Aβ1-40; test: TEM ultrastructural analysis of Aβ1-40 samples from kinetic studies
Experimental: Transmission Electron microscopy (TEM): A 10 μl sample of the ThT fluorescence assay was placed on a 400 mesh copper grid covered by carbon-stabilized Formvar film (SPI Supplies, West Chester, Pa.). After 1.5 minutes, excess fluid was removed and the grids were negatively stained for 2 minutes with 10 μl of 2% uranyl acetate solution. Excess fluid was removed and the samples were viewed using a JEOL 1200EX electron microscope operating at 80 kV. Ultrastructural Analysis of amyloid fibril formation: The effect of the indole derivatives on the ultrastructural properties of the assembled Aβ was first evaluated by TEM measurements. Thus, TEM analysis was performed with samples of Aβ1-40 obtained from the kinetic studies described above after incubation for 14 days.

Aβ 1-42 = target: T2, Aβ 1-42 (Homo sapiens, UniProt P05067); test: Thioflavin T fluorescence assay of Aβ 1-42 fibrillization (Example 2); format: biochemical; conditions: for inhibition of β-amyloid polypeptide fibril formation: 50 μM compound, 5 μM Aβ 1-42, 24 hours at 37° C.; for concentration dependence of inhibition of fibril formation: Aβ1-42, fixed incubation time of 24 hours; for IC50: Aβ1-42 fibrillization, 24 hours, calculated by the curve equation, read-out: apparent IC50
T2 construct: Aβ 1-40 and Aβ 1-42, >98% pure) were purchased from Bachem; purchased Bachem (Bubendorf, Switzerland); host or cells: chemical synthesis
T2 sequence (P05067 672-713 limits assumed): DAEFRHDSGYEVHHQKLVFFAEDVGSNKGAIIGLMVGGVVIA
Experimental: as §1, §2, §3
Inhibition of amyloid formation: The level of amyloid formation was detected using the above described Thioflavin T (ThT) dye binding assay. Fluorescence (relative intensity, measured in units of percent) of the ThT bound Aβ 1-42 remaining following 24 hours at 37° C., in the absence, and in the presence of 50 μM indole or indole derivative, was measured. Each measurement was recorded immediately after the fluorescence intensity reached a maximum value. The results obtained with representative indole derivatives, each representing a mean of four independent measurements along with an associated error bar representing a standard error, are graphically presented in FIG. 4.
Concentration Dependence of Indole Derivatives inhibition activity: To examine the inhibition efficiency of the indole derivatives, the concentration dependence of inhibition of fibril formation was studied. The fibrillization of Aβ1-42, with and without an indole derivative was measured using the ThT fluorescence assay described above at a fixed incubation time of 24 hours.

Aβ 1-40 polypeptide [4] = target: T3, Aβ 1-40 polypeptide (Homo sapiens, UniProt P05067); test: Thioflavin T fluorescence assay of Aβ 1-40 fibrillization (Example 1); format: biochemical; conditions: 10 μM compound
T3 construct: Recombinant β-amyloid (Aβ 1-40, >98% pure) polypeptide; purchased rPeptide (Athens Ga., USA)
T3 sequence (P05067 672-711 limits assumed): as the sequence (P05067 672-711 limits assumed) above
Experimental: Fibrillization of Aβ 1-40 polypeptide was monitored using a Thioflavin T (ThT) dye binding assay. […] Fluorescence measurements, made after addition of the ThT solution to each sample at 37° C., were carried out using a Jobin Yvon FluoroMax-3 spectrometer (excitation 450 nm, 2.5 nm slit; emission 480 nm, 5 nm slit, integration time of 1 second). Background was subtracted from each sample. The level of amyloid formation was detected using the above described Thioflavin T (ThT) dye binding assay.

Aβ 1-40 polypeptide [5] = target: T3, Aβ 1-40 polypeptide; test: Transmission electron microscopy of ThT assay samples (Example 1); conditions: 10 μM compound, sample at about 192 hours
Experimental: Transmission Electron Microscopy (TEM) Measurements: 10 μl samples from the ThT fluorescence assay were placed on 400-mesh copper grids (SPI supplies, West Chester Pa.) covered by carbon stabilized Formvar film. After 1 minute, excess fluid was removed, and the grids were negatively stained with 2% uranyl acetate in water for another two minutes. Microstructural features of the samples were viewed using a JEOL 1200EX electron microscope operating at 80 kV.
In order to obtain insight into the mechanism of inhibiting formation of β-amyloidpolypeptide type of amyloid fibrils, representative samples taken from the ThT fluorescence assay measurements described above after attainment of the plateau (at about 192 hours, FIG. 2), in the absence or presence of indole-3-carbinol, were viewed using electron microscopy.

[6] = 50 μM compound, 5 μM Aβ1-40, endpoint of experiment, read-out: inhibition level at final equilibrium phase
[7] = 50 μM compound, 14 days incubation

| inhibition of β-amyloid polypeptide fibril formation (Aβ 1-42) | concentration dependence of inhibition of fibril formation (Aβ 1-42) | IC50 (Aβ 1-42) [µM] | Compound | inhibitory effect on Aβ1-40 cytotoxicity (PC12 cells) | effect on nucleation phase (lag phase) compared with control (Aβ1-40 [1]; 5 μM Aβ1-40) | effect on slope of growth curve (polymerization phase) (Aβ1-40 [1]; 5 μM Aβ1-40) | inhibition at 50 µM (Aβ1-40 [1]; [6]) [%] | amyloid fibril formation by AFM (Aβ1-40 [2]) | fibril ultrastructure by TEM (Aβ1-40 [3]; [7]) | other results |
| --- | --- | --- | --- | --- | --- | --- | --- | --- | --- | --- |
| significantly inhibited | dose-dependent inhibition pattern | ~100 | Oc1c[nH]c2ccccc12 [3-hydroxyindole] | no anti-cyclotoxic effect | no effect on the nucleation phase | dose-dependent effect | ~60 | small aggregates that interacted with the amyloid fibrils | significant number of amorphous aggregates showing a congested form | improvement of PC12 survival rate compared with control (PC12 cells; only at T=0 (solution added immediately), 5 μM Aβ1-40): about 25%; inhibition at 25 µM (Aβ1-40 [1]; 25 μM compound, 5 μM Aβ1-40, endpoint of experiment, read-out: inhibition level at final equilibrium phase): ~40% |
| significantly inhibited | dose-dependent inhibition pattern | ~85 | Oc1cccc2[nH]ccc12 [4-hydroxyindole] | most significant inhibitory effect | – | – | – | no fibrils | – | protective effect, concentration dependence (PC12 cells; 0.5 μM to 50 μM, 5 μM Aβ1-40, solution incubated 7 days): dose-dependent; minimum concentration required for significant inhibition (PC12 cells; 5 μM Aβ1-40, solution incubated 7 days): 2.5 µM; elevation of viability rate of PC12 cells compared with control (PC12 cells; 25 μM compound): about 25%; elevation of viability rate of PC12 cells compared with control (PC12 cells; 50 μM compound): about 25%; toxic effect of Aβ1-40 (PC12 cells; 50 μM compound, 5 μM Aβ1-40, solution incubated 7 days): completely blocked; effect on nucleation phase (lag phase) (Aβ1-40 [1]; 5 μM compound, 5 μM Aβ1-40): less significant; slope of growth curve (polymerization phase) (Aβ1-40 [1]; 5 μM compound, 5 μM Aβ1-40): the most sharp; inhibition at 5 µM (Aβ1-40 [1]; 5 μM compound, 5 μM Aβ1-40, endpoint of experiment, read-out: inhibition level at final equilibrium phase): ~60%; effect on nucleation phase (lag phase) (Aβ1-40 [1]; 25 μM compound, 5 μM Aβ1-40): significantly longer nucleation phase; inhibition level at final equilibrium phase (Aβ1-40 [1]; 25 μM compound, 5 μM Aβ1-40, endpoint of experiment): almost complete; effect on nucleation phase (lag phase) (Aβ1-40 [1]; 50 μM compound, 5 μM Aβ1-40): significantly longer nucleation phase; inhibition level at final equilibrium phase (Aβ1-40 [1]; 50 μM compound, 5 μM Aβ1-40, endpoint of experiment): almost complete; inhibition level at final equilibrium phase, comparison among compounds (Aβ1-40 [1]; all the tested concentrations): highest inhibition level; fibril ultrastructure by TEM (Aβ1-40 [3]; 5 μM or more of compound): no amyloid fibrils; fibril ultrastructure by TEM (Aβ1-40 [3]; 25 μM compound, 14 days incubation): devoid of fibrils and contained only a minor amount of small fibrils |
| significantly reduced inhibition | – | – | Oc1ccc2[nH]ccc2c1 [5-hydroxyindole] | – | – | – | – | – | – | – |
| significantly reduced inhibition | – | – | Oc1cc2ccccc2[nH]1 [2-hydroxyindole] | – | – | – | – | – | – | – |

| Compound | inhibition of β-amyloid polypeptide fibril formation (Aβ 1-42) | concentration dependence of inhibition of fibril formation (Aβ 1-42) | IC50 (Aβ 1-42) [µM] | inhibitory effect on Aβ1-40 cytotoxicity (PC12 cells) | effect on nucleation phase (lag phase) compared with control (Aβ1-40 [1]; 5 μM Aβ1-40) | effect on slope of growth curve (polymerization phase) (Aβ1-40 [1]; 5 μM Aβ1-40) | inhibition at 50 µM (Aβ1-40 [1]; [6]) [%] | amyloid fibril formation by AFM (Aβ1-40 [2]) | fibril ultrastructure by TEM (Aβ1-40 [3]; [7]) | other results |
| --- | --- | --- | --- | --- | --- | --- | --- | --- | --- | --- |
| OCc1c[nH]c2ccccc12 [indole-3-carbinol] | significantly inhibited | only at high concentrations and showed no dose-dependency | ~200 | No significant inhibition of cytotoxicity | no effect on the nucleation phase | effect on the slope of the growth curve only at 50 μM | ~50 | small amounts of amyloid fibrils in the form of long wires | smaller amounts of amyloid fibril aggregates | level of fluorescence at the plateau compared to non-inhibited Aβ 1-40 (Aβ 1-40 polypeptide [4]; 5 μM Aβ 1-40): about a third; time to attainment of fluorescence plateau (Aβ 1-40 polypeptide [4]; 5 μM Aβ 1-40, 37° C., without compound about 200 hours): about 300 hours; levels of ThT fluorescence following about 100 hours (Aβ 1-40 polypeptide [4]; 5 μM Aβ 1-40, remaining duration of assay): significantly lower levels of fluorescence; lag-time of fibrillization (Aβ 1-40 polypeptide [4]; 5 μM Aβ 1-40, control lag-phase about 100 hours): significantly extended; fibril morphology by electron microscopy (Aβ 1-40 polypeptide [5]): significantly shorter and less dense fiber type material |

Reference: patent publication US8889729B2, “Compositions for treating amyloid associated diseases” (Tel Aviv University Future Technology Development L.P., priority 2004, dated 2014)
